Reference: EP0695544B1, “Hard gelatin capsules resistant to denaturation and the production thereof” (SHIONOGI & CO., LTD., priority 1994, dated 1996)
Entries after “also recorded” stand apart in the source; their conditions may differ. Read-outs that look alike come from different tables or passages of the source.

Tests used:
[1] = Solubility of gelatin capsule shells filled with PEG 4000 and free radical scavenger after storage (Example 3); type: physicochemical; conditions: 5 parts scavenger + 95 parts PEG 4000 packed into capsule, 60°C for a week, content removed; 2nd solution of JP12 (37 °C)
Description: After storage in a tightly closed glass bottle at 60°C for a week, the capsule content was removed and solubility of each capsule shell was examined in the same manner as in Example 1.

[2] = capsule shells stored without contact over 95 parts PEG 6000 + 5 parts scavenger, 60°C for a week, 2nd solution of JP12 (37 °C), observed after 5 to 6 minutes

Solubility [1]	Compound	Solubility [2]	Solubility ([2]; listed as tocopherol)
soluble rapidly	Cc1c(C)c2c(c(C)c1O)CC[C@@](C)(CCC[C@H](C)CCC[C@H](C)CCCC(C)C)O2 [d-α -tocopherol]	soluble rapidly	completely prevented the decrease of the solubility
soluble rapidly	N[C@@H](CCC(=O)N[C@@H](CS)C(=O)NCC(=O)O)C(=O)O [glutathione]		

Second part, the compound before the results:

Compound	Solubility [1]	Solubility [2]	Solubility ([2]; listed as tocopherol)
O=P(=O)O [metaphosphoric acid]	soluble rapidly		
Cc1cc2nc3c(=O)[nH]c(=O)nc-3n(C[C@H](O)[C@H](O)[C@H](O)CO)c2cc1C [riboflavin]		completely prevented the decrease of the solubility; also recorded: soluble rapidly	
polyphosphoric acid	soluble rapidly		
